Measurements from patent US20260365611A1, “CRYSTALLINE SALTS OF 2-PHENYL-2-AMINOCYCLOHEXAN-1-ONE DERIVATIVES” (priority 2023, published 2026).
Counter-ions that a name gives are not always drawn. Like-named read-outs stand apart in the source and are kept apart here.

Columns and labels:
Assay type in all cases: physicochemical
[1] = Thermo-Gravimetric Analysis (TGA)
Protocol: In the examples below, the solids are analyzed by XRPD to determine if they are crystalline and if so, by DSC to determine melting point and TGA to determine if hydrated/solvated.

[2] = Crystal form conversion on drying
Protocol: About 0.25 mL of ethyl acetate was added to a glass vial containing about 40 mg of freebase (R)-2-(4-fluorophenyl)-2-(methylamino)cyclohexan-1-one. One molar equivalent of citric acid was added to the vial, and the contents were stirred at room temperature.

[3] = Sublimation on heating; details: heated up to 300 °C
Protocol: The Form 1 polymorph was heated up to 300 °C. […] Polymorph screening of the deuterated 1R HCl salt of Example 2 (Form 1).

[4] = Dynamic Vapor Sorption (DVS)
Protocol: 1R HCl Form 1 was analyzed by DVS (0-90-O-90-0% RH at 25 °C). The DVS behavior is shown in FIGS. 5(a) and (b), wherein 1 plots cycle 1 desorption, 2 plots cycle 2 sorption, 3 plots cycle 2 desorption, 4 plots cycle 1 sorption, 5 plots target % P/Po and 6 plots dm dry line, wherein P is the vapor pressure, Po is the saturation vapor pressure and P/Po is equivalent to % relative humidity for water.

[5] = Approximate solubility in 20 solvents; details: for solubility: RT
Protocol: The approximate solubility of the crystalline hydrochloride salt product of Example 1 (1R HCl Form 1) was estimated in 20 solvents as follows: Approximately 10 mg of the product of Example 1 is placed into a 4.0 mL vial, to which 25 μL of solvent at RT is added, and then the vial with its contents is shaken and stirred. If no clear solution is obtained, another 25 μL of solvent is added to the vial and then the vial with its contents is shaken and stirred again. This process is repeated until 4.0 mL solvent is added, and then the contents of the vial are stirred overnight.

[6] = drying in a vacuum oven at room temperature

CN[C@@]1(c2ccc(F)cc2)CCCCC1=O [Tar-6, (R)-2-(4-fluorophenyl)-2-(methylamino)cyclohexan-1-one Tar-6]
TGA weight loss ([1]; by 100 °C): about 10.67%

CN[C@@]1(c2ccc(F)cc2)CCCCC1=O [Glyc-1, (R)-2-(4-fluorophenyl)-2-(methylamino)cyclohexan-1-one Glyc-1]
TGA weight loss ([1]; room temperature to 100 °C): about 1.89%

CN[C@@]1(c2ccc(F)cc2)CCCCC1=O [Mal-1, (R)-2-(4-fluorophenyl)-2-(methylamino)cyclohexan-1-one Mal-1]
TGA weight loss ([1]; by 100 °C): about 0.16%

CN[C@@]1(c2ccc(F)cc2)CCCCC1=O [Tar-3, (R)-2-(4-fluorophenyl)-2-(methylamino)cyclohexan-1-one Tar-3]
TGA weight loss ([1]; room temperature to 125 °C): about 9.95%

CN[C@@]1(c2ccc(F)cc2)CCCCC1=O [Mali-1, (R)-2-(4-fluorophenyl)-2-(methylamino)cyclohexan-1-one-L-Mali-1]
TGA weight loss ([1]; room temperature to 100 °C): about 0.70%

CN[C@@]1(c2ccc(F)cc2)CCCCC1=O [Phos-1, (R)-2-(4-fluorophenyl)-2-(methylamino)cyclohexan-1-one Phos-1]
TGA weight loss ([1]; by 100 °C): about 0.11%

CN[C@@]1(c2ccc(F)cc2)CCCCC1=O [Tar-5, (R)-2-(4-fluorophenyl)-2-(methylamino)cyclohexan-1-one Tar-5]
TGA weight loss ([1]; by 100 °C): about 0.26%

CN[C@@]1(c2ccc(F)cc2)CCCCC1=O [Phos-2, (R)-2-(4-fluorophenyl)-2-(methylamino)cyclohexan-1-one Phos-2]
TGA weight loss ([1]; by 100 °C): about 0.90%

CN[C@@]1(c2ccc(F)cc2)CCCCC1=O [Fum-1, (R)-2-(4-fluorophenyl)-2-(methylamino)cyclohexan-1-one Fum-1]
TGA weight loss ([1]; by 100 °C): about 0.66%

CN[C@@]1(c2ccc(F)cc2)CCCCC1=O [Tar-4, (R)-2-(4-fluorophenyl)-2-(methylamino)cyclohexan-1-one Tar-4]
Crystal form conversion [2, 6]: converted into Tar-6

CN[C@@]1(c2ccc(F)cc2)CCCCC1=O [1R HCl Form 1, (R)-2-(4-fluorophenyl)-2-(methylamino)cyclohexan-1-one hydrochloride Form 1]
Sublimation [3]: can be sublimed from a solid phase to gas phase without passing through the liquid phase
Form of material recovered from sublimation ([3]; XRPD): same XRPD pattern as 1R HCl Form 1
Hydrate/solvate state from TGA ([1]; heated from room temperature to 100 °C): not a hydrate or solvate
TGA weight loss ([1]; room temperature to 100 °C): 0.34%
DVS moisture sorption behavior ([4]; 25 °C, 0-90-0-90-0% RH): absorbs significant moisture above ~80% RH but readily releases the moisture at lower humidity
Crystal form of post-DVS sample ([4]; post-DVS, kept at 0% RH for 3 days): same crystal form as the starting solids
solubility ([5]; 1,4-dioxane, organic solvent or mixture, 1,4-Dioxane, read-out: Solubility): 2.9 to 3.3 mg/mL
solubility ([5]; 2-methf, organic solvent or mixture, 2-MeTHF, read-out: Solubility): < 2.6 mg/mL
solubility ([5]; DCM): 194 to 388 mg/mL
solubility ([5]; DMF): 192 to 384 mg/mL
solubility ([5]; DMSO): >395 mg/mL
solubility ([5]; EtOH): 215 to 431 mg/mL
solubility ([5]; MeOH): >486 mg/mL
solubility ([5]; Water): >464 mg/mL
solubility ([5]; acetone, organic solvent or mixture, Acetone, read-out: Solubility): 8.8 to 9.7 mg/mL
solubility ([5]; acn, organic solvent or mixture, ACN, read-out: Solubility): 32 to 38 mg/mL
solubility ([5]; dcm, organic solvent or mixture, DCM, read-out: Solubility): > 300 mg/mL
solubility ([5]; dmf, organic solvent or mixture, DMF, read-out: Solubility): > 300 mg/mL
solubility ([5]; dmso, organic solvent or mixture, DMSO, read-out: Solubility): > 300 mg/mL
Solubility (in words) ([5]; esters, ketones, ethers, and alkanes): Limited or no solubility
solubility ([5]; etoac, organic solvent or mixture, EtOAc, read-out: Solubility): < 2.6 mg/mL
solubility ([5]; etoh, organic solvent or mixture, EtOH, read-out: Solubility): > 300 mg/mL
solubility ([5]; heptane, organic solvent or mixture, Heptane, read-out: Solubility): < 2.7 mg/mL
solubility ([5]; ipa, organic solvent or mixture, IPA, read-out: Solubility): 50 to 67 mg/mL
solubility ([5]; ipac, read-out: Solubility): < 2.4 mg/mL
solubility ([5]; mek, read-out: Solubility): 3.1 to 3.7 mg/mL
solubility ([5]; meoh, organic solvent or mixture, MeOH, read-out: Solubility): > 300 mg/mL
solubility ([5]; mibk, read-out: Solubility): < 2.7 mg/mL
solubility ([5]; mtbe, organic solvent or mixture, MTBE, read-out: Solubility): < 2.5 mg/mL
solubility ([5]; npa, read-out: Solubility): 51 to 69 mg/mL
solubility ([5]; thf, organic solvent or mixture, THF, read-out: Solubility): < 3 mg/mL
solubility ([5]; toluene, organic solvent or mixture, Toluene, read-out: Solubility): < 2.7 mg/mL
solubility ([5]; water, read-out: Solubility): > 300 mg/mL

CN[C@@]1(c2ccc(F)cc2)CCCCC1=O [Sulfate-2, (R)-2-(4-fluorophenyl)-2-(methylamino)cyclohexan-1-one Sulfate-2]
Crystal form conversion ([2]; wet cake dried at room temperature): a different XRPD diffractogram was obtained

CN[C@@]1(c2ccc(F)cc2)CCCCC1=O [Sulfate-3, (R)-2-(4-fluorophenyl)-2-(methylamino)cyclohexan-1-one Sulfate-3]
Crystal form conversion ([2]; further dried with heating at 40 °C): a different XRPD diffractogram was obtained

CN[C@@]1(c2ccc(F)cc2)CCCCC1=O [MSA-1, (R)-2-(4-fluorophenyl)-2-(methylamino)cyclohexan-1-one MSA-1]
TGA weight loss ([1]; by 100 °C): about 0.01%

CN[C@@]1(c2ccc(F)cc2)CCCCC1=O [Cit-2, (R)-2-(4-fluorophenyl)-2-(methylamino)cyclohexan-1-one Cit-2]
TGA weight loss ([1]; room temperature to 100 °C): about 1.33%

CN[C@@]1(c2ccc(F)cc2)CCCCC1=O [Cit-1, (R)-2-(4-fluorophenyl)-2-(methylamino)cyclohexan-1-one Cit-1]
Crystal form conversion [2, 6]: transitioned to a different XRPD pattern

CN[C@@]1(c2ccc(F)cc2)CCCCC1=O [Mal-2, (R)-2-(4-fluorophenyl)-2-(methylamino)cyclohexan-1-one Mal-2]
TGA weight loss ([1]; by 100 °C): about 0.11%

CN[C@@]1(c2ccc(F)cc2)CCCCC1=O [Sulfate-1, (R)-2-(4-fluorophenyl)-2-(methylamino)cyclohexan-1-one Sulfate-1]
TGA weight loss ([1]; by 100 °C, listed as sulfate salt): about 0.08%

CN[C@@]1(c2ccc(F)cc2)CCCCC1=O [Hip-1, (R)-2-(4-fluorophenyl)-2-(methylamino)cyclohexan-1-one Hip-1]
TGA weight loss ([1]; room temperature to 100 °C): about 0.69%

CN[C@@]1(c2ccc(F)cc2)CCCCC1=O [Tar-2, (R)-2-(4-fluorophenyl)-2-(methylamino)cyclohexan-1-one Tar-2]
Crystal form conversion [2, 6]: transitioned into Tar-5
